These results are taken from US4812483A, “Insecticidal alkenes” (Imperial Chemical Industries PLC, priority 1985, dated 1989).

Some results are limits rather than exact numbers.

As a reminder, the mortality is the percentage killed.

Common to all, as to format: in vivo
For experiment [1], the system named is Diabrotica balteata (rootworm larvae). Description: Residual test, mortality of rootworm larvae (DB). As to conditions: 72 h, filter paper/maize seed, 3 days, read-out: grading of mortality, DB. How it is done: (§1) The activity of the compound was determined using a variety of insect pests. The compound was used in the form of liquid preparations containing 500 parts per million (ppm) by weight of the compound. The preparations were made by dissolving the compound in acetone and diluting the solutions with water containing 0.01% by weight of a wetting agent sold under the trade name "LISSAPOL" NX until the liquid preparations contained the required concentration of the compound. "Lissapol" is a Registered Trade Mark.
(§2) The test procedure adopted with regard to each pest was basically the same and comprised supporting a number of the pests on a medium which was usually a host plant or a foodstuff on which the pests feed, and treating either or both the pests and the medium with the preparations. The mortality of the pests was then assessed at periods usually varying from one to three days after the treatment.
(§3) The results of the tests are given in Table III for each of the compounds, at the rate in parts per million given in the second column as a grading of mortality designated as A, B or C wherein A indicates 80-100% mortality or knockdown, B indicates 50-79% mortality or knockdown and C indicates less than 50% mortality or knockdown.
(§4) In Table III the pest organism used is designated by a letter code and the pests species, the support medium or food, and the type and duration of test is given in Table II.

A further experiment has as its system Myzus persicae (aphids). In words: Contact test, mortality of aphids (MP). Conditions: 48 h, leaf, 2 days, read-out: grading of mortality, MP. How it is done:
as §1, §2, §3, §4

The subject of experiment [2] is Nilaparvata lugens (green leaf hopper). In words: Contact test, mortality of Nilaparvata lugens (NL). Conditions: 144 h, cabbage leaf, 6 days, read-out: grading of mortality, NL. How it is done: as §1, §2, §3, §4
Experiment [3] has as its system Heliothis viriscens (tobacco budworm). In words: whole plant or invertebrate. As to conditions: in Gossypium hirsutum, 72 h, read-out: grading of mortality, HV. How it is done: as §1, §2, §3, §4
Experiment [4] relates to Blattella germanica (cockroach nymphs). Description: Residual test, mortality of cockroach nymphs (BG). Conditions: 72 h, plastic pot, 3 days, read-out: grading of mortality, BG. How it is done: as §1, §2, §3, §4
The test system of experiment [5] is Tetranychus urticae (red spider mites - adult). In words: Contact test, mortality of red spider mites (TU). Conditions: 72 h, French bean leaf, 3 days, read-out: grading of mortality, TU. How it is done:
as §1, §2, §3, §4
(red spider mites - adult)

The test system of experiment [6] is Chilo partellurs (Stem borers). In words: Residual test, mortality of stem borers (CP). Conditions: 72 h, oil seed rape leaf, 3 days, read-out: grading of mortality, CP. How it is done:
as §1, §2, §3, §4

The subject of experiment [7] is Musca domestica (houseflies - adults). In words: Contact test, mortality of houseflies (MD). As to conditions: 24 h, cotton wool/sugar, 1 day, read-out: grading of mortality, MD. How it is done:
as §1, §2, §3, §4

For the compound `CC(C)(C=C(Cl)Cl)COCc1ccc(F)c(Cc2ccccc2)c1` [Compound 20, 2,2-dimethyl-1-(3-benzyl-4-fluorobenzyloxy)-4,4-dichlorobut-3-ene], the mortality at 500 ppm in experiment [1] was < 50%; with Myzus persicae (aphids) it was < 50%; in experiment [2], 80 to 100%; in experiment [3], < 50%; in experiment [4], < 50%; in experiment [5], < 50%.

Take `CC(C)(C=C(Br)Br)COCc1cccc(Oc2ccccc2)c1` [Compound 3, 2,2-dimethyl-1-(3-phenoxybenzyloxy)-4,4-dibromobut-3-ene]: the mortality at 500 ppm in experiment [1] was < 50%; in experiment [6] it was 80 to 100%; in the experiment with Myzus persicae (aphids), < 50%; in experiment [7], < 50%; in experiment [2], 50 to 79%; in experiment [3], < 50%. The mortality at 500 ppm in experiment [4] was < 50%.

`CC(C)(C=C(F)Cl)COCc1cccc(Oc2ccccc2)n1` [Compound 19, E,Z-2,2-dimethyl-1-(6-phenoxypyrid-2-yl)methoxy-4-chloro-4-fluorobut-3-ene]: the mortality at 500 ppm in experiment [1] was 80 to 100%; with Myzus persicae (aphids), 50 to 79%; in experiment [2], 80 to 100%; in experiment [3] it was < 50%; in experiment [4], 50 to 79%; in experiment [5], 50 to 79%.

Take `C=CC(C)(C)COCc1cccc(Oc2ccccc2)c1` [Compound 2, 3,3-Dimethyl-4-(3-phenoxybenzyloxy)but-1-ene]: the mortality at 500 ppm in experiment [1] was 80 to 100%; in the experiment on Myzus persicae (aphids), < 50%; in experiment [7], 80 to 100%; in experiment [2] it was 80 to 100%; in experiment [3], < 50%; in experiment [4], < 50%.

For the compound `ClC(Cl)=CC1(COCc2cccc(Oc3ccccc3)c2)CC1` [Compound 9, 1-(2,2-dichlorovinyl)-1-(3-phenoxybenzyloxymethyl)cyclopropane], the mortality at 500 ppm in experiment [1] was 50 to 79%; with Myzus persicae (aphids) it was 80 to 100%; in experiment [7] it was 80 to 100%; in experiment [2] it was 80 to 100%; in experiment [3], < 50%; in experiment [4], 50 to 79%. The mortality at 500 ppm in experiment [5] is < 50%.

For `CC(C)(C=C(Cl)Cl)COCc1cccc(Oc2ccccc2)n1` [Compound 13, 2,2-dimethyl-1-(6-phenoxypyrid-2-yl)methoxy-4,4-dichlorobut-3-ene], the mortality at 500 ppm in experiment [1] is 80 to 100%; in the experiment on Myzus persicae (aphids) it was 50 to 79%; in experiment [7], 50 to 79%; in experiment [2] it was 80 to 100%; in experiment [3] it was 80 to 100%; in experiment [4], 80 to 100%. Moreover, the mortality at 500 ppm in experiment [5] was < 50%.

As to `C=CC(C)(C)COCc1ccc(F)c(Cc2ccccc2)c1` [Compound 14, 3,3-Dimethyl-4-(3-benzyl-4-fluorobenzyloxy)but-1-ene], the mortality at 500 ppm in experiment [1] was 80 to 100%; in the experiment with Myzus persicae (aphids), < 50%; in experiment [7], 80 to 100%; in experiment [2], 80 to 100%; in experiment [3], < 50%; in experiment [4] it was 50 to 79%. In addition, the mortality at 500 ppm in experiment [5] was < 50%.

Consider `CC(C)(C=C(Cl)Cl)COCc1ccc(F)c(Oc2ccccc2)c1` [Compound 1, 2,2-dimethyl-1-(4-fluoro-3-phenoxybenzyloxy)-4,4-dichlorobut-3-ene], for which the mortality at 500 ppm in experiment [1] is 80 to 100%; in experiment [6], 80 to 100%; in the experiment on Myzus persicae (aphids), < 50%; in experiment [7] it was 80 to 100%; in experiment [2], 80 to 100%; in experiment [3], 80 to 100%. Moreover, the mortality at 500 ppm in experiment [4] lay within 80 to 100%.

Take `CC(C)(C=C(F)F)COCc1cccc(Oc2ccccc2)c1` [Compound 17]: the mortality at 500 ppm in experiment [1] was 80 to 100%; in the experiment on Myzus persicae (aphids) it was < 50%; in experiment [2], 80 to 100%; in experiment [3], < 50%; in experiment [4], 80 to 100%; in experiment [5] it was < 50%.

Consider `C=CC(C)(C)COCc1cccc(Oc2ccccc2)n1` [Compound 12, 3,3-Dimethyl-4-(6-phenoxypyrid-2-yl)methoxy-but-1-ene], for which the mortality at 500 ppm in experiment [1] was 80 to 100%; in the experiment on Myzus persicae (aphids) it was < 50%; in experiment [7], < 50%; in experiment [2] it was 80 to 100%; in experiment [3], < 50%; in experiment [4], < 50%. Also, the mortality at 500 ppm in experiment [5] is < 50%.

As for `CC(C)(C=C(F)Cl)COCc1cccc(Oc2ccccc2)c1` [Compound 11, Z,E-2,2-dimethyl-1-(3-phenoxybenzyloxy)-4-chloro-4-fluorobut-3-ene], the mortality at 500 ppm is 80 to 100% in experiment [1]; < 50% in the experiment with Myzus persicae (aphids); 50 to 79% in experiment [7]; 80 to 100% in experiment [2]; 50 to 79% in experiment [3]; 50 to 79% in experiment [4]. Moreover, the mortality at 500 ppm in experiment [5] was < 50%.

For the compound `C=CC(C)(CC)COCc1cccc(Oc2ccccc2)c1` (stereo not drawn) [Compound 8, 3-Ethyl-3-methyl-4(3-phenoxybenzyloxy)but-1-ene], the mortality at 500 ppm in experiment [1] was 80 to 100%; in the experiment on Myzus persicae (aphids), < 50%; in experiment [7], 80 to 100%; in experiment [2], 80 to 100%; in experiment [3] it was < 50%; in experiment [4] it was < 50%. Besides, the mortality at 500 ppm in experiment [5] fell in the range of 80 to 100%.

In the case of `CC(C)(C=C(F)F)COCc1ccc(F)c(Cc2ccccc2)c1` [Compound 18], the mortality at 500 ppm in experiment [1] is 80 to 100%; in the experiment on Myzus persicae (aphids) it was < 50%; in experiment [2], 80 to 100%; in experiment [3] it was 80 to 100%; in experiment [4], 80 to 100%; in experiment [5], 50 to 79%.

`CC(C)(C=C(F)F)COCc1ccc(F)c(Oc2ccccc2)c1` [Compound 15, 2,2-dimethyl-1-(4-fluoro-3-phenoxybenzyloxy)-4,4-difluorobut-3-ene]: the mortality at 500 ppm (in experiment [1]; with Myzus persicae (aphids); in experiment [7]; in experiment [2]; in experiment [3]; in experiment [4]) was 80 to 100% each time. Further, the mortality at 500 ppm in experiment [5] fell in the range of 80 to 100%.

For the compound `CC(C)(C=CCl)COCc1cccc(Oc2ccccc2)c1` [Compound 10, 2,2-dimethyl-1-(3-phenoxybenzyloxy)-4-chlorobut-3-ene], the mortality at 500 ppm was 80 to 100% in experiment [1]; < 50% in experiment [6]; < 50% with Myzus persicae (aphids); 50 to 79% in experiment [7]; 80 to 100% in experiment [2]; < 50% in experiment [4]. For the same compound, in experiment [5], the mortality at 500 ppm was < 50%.

`C=CC(C)(C)COCc1ccc(F)c(Oc2ccccc2)c1` [Compound 5, 3,3-dimethyl-4-(4-fluoro-3-phenoxybenzyloxy)but-1-ene]: the mortality at 500 ppm is 80 to 100% in experiment [1]; 80 to 100% with Myzus persicae (aphids); 80 to 100% in experiment [7]; 80 to 100% in experiment [2]; < 50% in experiment [3]; 80 to 100% in experiment [4]. Also, the mortality at 500 ppm in experiment [5] was 80 to 100%.

For the compound `CC(C)(C=C(F)F)COCc1cccc(Oc2ccccc2)n1` [Compound 16, 2,2-dimethyl-1-(6-phenoxypyrid-2-yl)methoxy-1,1-difluorobut-1-ene], the mortality at 500 ppm (in experiment [1]; in the experiment on Myzus persicae (aphids); in experiment [2]; in experiment [3]; in experiment [4]; in experiment [5]) was 80 to 100% each time.

Turning to `CC(C)(C=C(Cl)Cl)COCc1cccc(Oc2ccccc2)c1` [Compound 4, 2,2-dimethyl-1-(3-phenoxybenzyloxy)-4,4-dichlorobut-3-ene], the mortality at 500 ppm in experiment [1] was < 50%; in the experiment on Myzus persicae (aphids), < 50%; in experiment [7], < 50%; in experiment [2] it was 80 to 100%; in experiment [3], < 50%; in experiment [4], < 50%. Further, the mortality at 500 ppm in experiment [5] was < 50%.
